Measurements taken from article PMC7544095, “Human ABCB1 with an ABCB11-like degenerate nucleotide binding site maintains transport activity by avoiding nucleotide occlusion” (PLoS Genetics, 2020).
Like-named read-outs stand apart in the source and are kept apart here.

Columns and labels:
[1] = biological target: T1, ABCB1 E556M (catalytic glutamate mutant) (Homo sapiens, UniProt P08183, E556M); test: Hoechst 33342 and calcein-AM accumulation assay in NIH 3T3 cells (transport activity factor); assay type: cell-based
T1 construct: expressed in transfected cells
T1 sequence (P08183 whole entry E556M): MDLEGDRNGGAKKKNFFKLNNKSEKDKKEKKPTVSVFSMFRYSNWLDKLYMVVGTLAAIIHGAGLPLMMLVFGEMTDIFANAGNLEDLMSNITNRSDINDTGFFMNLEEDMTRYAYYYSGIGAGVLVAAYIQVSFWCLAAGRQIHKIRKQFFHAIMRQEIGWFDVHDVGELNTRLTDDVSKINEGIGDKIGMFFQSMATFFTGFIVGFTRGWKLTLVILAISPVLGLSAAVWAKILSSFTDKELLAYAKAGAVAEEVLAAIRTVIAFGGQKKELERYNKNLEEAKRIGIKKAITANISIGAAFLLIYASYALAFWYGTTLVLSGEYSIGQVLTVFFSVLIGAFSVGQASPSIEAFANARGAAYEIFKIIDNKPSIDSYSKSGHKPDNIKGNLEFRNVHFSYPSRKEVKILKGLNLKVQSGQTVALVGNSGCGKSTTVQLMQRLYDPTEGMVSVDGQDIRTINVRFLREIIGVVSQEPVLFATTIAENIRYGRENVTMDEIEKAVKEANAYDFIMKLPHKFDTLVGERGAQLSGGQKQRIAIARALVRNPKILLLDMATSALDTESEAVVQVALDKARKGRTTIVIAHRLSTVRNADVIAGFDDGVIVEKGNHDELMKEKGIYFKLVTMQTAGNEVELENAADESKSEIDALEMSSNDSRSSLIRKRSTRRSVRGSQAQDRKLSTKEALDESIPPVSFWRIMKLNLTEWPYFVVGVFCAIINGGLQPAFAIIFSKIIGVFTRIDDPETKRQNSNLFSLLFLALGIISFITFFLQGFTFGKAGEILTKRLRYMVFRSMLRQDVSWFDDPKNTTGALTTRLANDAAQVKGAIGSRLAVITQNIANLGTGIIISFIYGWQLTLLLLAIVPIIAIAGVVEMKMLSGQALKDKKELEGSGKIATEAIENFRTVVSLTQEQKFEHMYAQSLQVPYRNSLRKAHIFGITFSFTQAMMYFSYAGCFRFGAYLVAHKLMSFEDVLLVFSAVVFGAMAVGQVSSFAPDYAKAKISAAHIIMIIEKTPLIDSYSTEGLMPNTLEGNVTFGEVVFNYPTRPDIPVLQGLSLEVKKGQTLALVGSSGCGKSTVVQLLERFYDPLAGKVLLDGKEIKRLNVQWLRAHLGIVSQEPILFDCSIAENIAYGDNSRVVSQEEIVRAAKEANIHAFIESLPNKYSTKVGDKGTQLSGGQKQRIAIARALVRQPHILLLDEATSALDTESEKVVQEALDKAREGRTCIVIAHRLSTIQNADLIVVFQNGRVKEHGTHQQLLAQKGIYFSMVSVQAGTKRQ
Experimental: (§1) For measurement of the transport activity of the mutant ABCB1 variants a cell based Hoechst 33342 and calcein-AM accumulation assay was used. Cells (5 × 10^5 ml^-1) in gl-HEPES (20 mM HEPES, 123 mM NaCl, 5 mM KCl, 1.5 mM MgCl2, 1 mM CaCl2, 7 mM glucose) for Hoechst 33342 assay or in gl-PBS for calcein-AM assay were pre-incubated in the presence or absence of specific ABCB1 inhibitor (tariquidar (1 μM)) for 10 min at 37°C and then were loaded with different concentrations of Hoechst 33342 (5.0, 1.0, 0.5, 0.1 and 0.025 μM) and calcein-AM (0.5, 0.25, 0.1, 0.05 and 0.025 μM) for 30 min. The samples were washed with ice-cold HEPES or PBS buffer containing 0.5% FBS at 300 × g for 5 min and were kept on ice until flow cytometric measurement. Dead cells were excluded from the analysis on the basis of PI staining. The transport activity of the ABCB1 variants was described by the Transport Activity Factor (TAF) calculated according to the following formula: TAF = (MFinh−MFI0)/MFIinh, wherein MFIinh and MFI0 are the mean fluorescence intensity values measured in the presence and absence of ABCB1 inhibitor, respectively.
(§2) Intracellular Hoechst 33342 and calcein accumulation was measured using a Becton Dickinson FACSAria III Cell Sorter (Becton Dickinson, Mountain View, CA, USA). Hoechst 33342 was excited with a 365 nm UV laser and the emitted blue light was detected using a 445/40 band pass filter. Calcein was excited with a 488 nm blue laser and fluorescence was detected using a 502 long pass dichroic mirror and a 530/20 band pass filter. PI was excited by the 562 nm line of a solid-state laser and the emitted light was detected applying a 590 nm dichroic mirror and a 595/50 nm band-pass filter.

[2] = biological target: T2, ABCB1 quadruple mutant (S474E, E556M, G1178R, Q1180E) (Homo sapiens, UniProt P08183, E556M/G1178R/Q1180E/S474E); test: as above; assay type: cell-based
T2 construct: expressed in transfected cells
T2 sequence (P08183 whole entry S474E/E556M/G1178R/Q1180E): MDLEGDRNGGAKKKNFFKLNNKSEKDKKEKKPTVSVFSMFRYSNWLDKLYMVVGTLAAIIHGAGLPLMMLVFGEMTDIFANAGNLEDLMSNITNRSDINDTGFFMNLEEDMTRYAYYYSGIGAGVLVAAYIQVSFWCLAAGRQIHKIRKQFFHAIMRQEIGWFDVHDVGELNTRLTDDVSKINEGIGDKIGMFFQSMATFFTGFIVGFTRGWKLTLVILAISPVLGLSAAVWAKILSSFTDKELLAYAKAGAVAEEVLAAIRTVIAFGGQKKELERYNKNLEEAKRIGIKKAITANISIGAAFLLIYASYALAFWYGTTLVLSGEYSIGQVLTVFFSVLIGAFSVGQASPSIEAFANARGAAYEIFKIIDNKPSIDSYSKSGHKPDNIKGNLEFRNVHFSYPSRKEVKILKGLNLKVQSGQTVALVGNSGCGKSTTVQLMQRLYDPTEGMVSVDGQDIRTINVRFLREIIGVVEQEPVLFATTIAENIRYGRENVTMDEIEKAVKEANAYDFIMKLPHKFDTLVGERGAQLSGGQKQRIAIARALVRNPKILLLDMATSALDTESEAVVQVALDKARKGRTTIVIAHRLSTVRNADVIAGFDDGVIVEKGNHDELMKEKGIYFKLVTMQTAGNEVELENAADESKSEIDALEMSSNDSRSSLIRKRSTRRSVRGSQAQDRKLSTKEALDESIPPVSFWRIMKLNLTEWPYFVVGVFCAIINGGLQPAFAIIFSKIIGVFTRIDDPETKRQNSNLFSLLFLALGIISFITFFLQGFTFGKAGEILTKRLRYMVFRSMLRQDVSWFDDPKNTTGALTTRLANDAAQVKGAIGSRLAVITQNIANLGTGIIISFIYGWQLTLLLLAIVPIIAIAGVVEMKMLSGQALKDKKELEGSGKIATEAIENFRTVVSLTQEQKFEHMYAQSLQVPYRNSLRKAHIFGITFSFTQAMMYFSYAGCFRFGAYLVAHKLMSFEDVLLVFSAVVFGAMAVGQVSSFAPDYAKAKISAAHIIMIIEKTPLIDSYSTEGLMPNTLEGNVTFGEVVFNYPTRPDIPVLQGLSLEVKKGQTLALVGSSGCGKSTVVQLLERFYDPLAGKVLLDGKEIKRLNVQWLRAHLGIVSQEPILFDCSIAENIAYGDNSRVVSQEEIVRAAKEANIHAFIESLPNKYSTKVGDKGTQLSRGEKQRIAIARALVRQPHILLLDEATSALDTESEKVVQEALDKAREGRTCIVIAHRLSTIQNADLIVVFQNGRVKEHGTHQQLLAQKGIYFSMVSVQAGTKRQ
Experimental: as §1, §2

[3] = biological target: T3, wild-type ABCB1 (Homo sapiens, UniProt P08183); test: as above; assay type: cell-based; conditions: wild-type ABCB1 expressing cells, 30 min, 37°C
T3 construct: expressed in transfected cells
T3 sequence (P08183 whole entry): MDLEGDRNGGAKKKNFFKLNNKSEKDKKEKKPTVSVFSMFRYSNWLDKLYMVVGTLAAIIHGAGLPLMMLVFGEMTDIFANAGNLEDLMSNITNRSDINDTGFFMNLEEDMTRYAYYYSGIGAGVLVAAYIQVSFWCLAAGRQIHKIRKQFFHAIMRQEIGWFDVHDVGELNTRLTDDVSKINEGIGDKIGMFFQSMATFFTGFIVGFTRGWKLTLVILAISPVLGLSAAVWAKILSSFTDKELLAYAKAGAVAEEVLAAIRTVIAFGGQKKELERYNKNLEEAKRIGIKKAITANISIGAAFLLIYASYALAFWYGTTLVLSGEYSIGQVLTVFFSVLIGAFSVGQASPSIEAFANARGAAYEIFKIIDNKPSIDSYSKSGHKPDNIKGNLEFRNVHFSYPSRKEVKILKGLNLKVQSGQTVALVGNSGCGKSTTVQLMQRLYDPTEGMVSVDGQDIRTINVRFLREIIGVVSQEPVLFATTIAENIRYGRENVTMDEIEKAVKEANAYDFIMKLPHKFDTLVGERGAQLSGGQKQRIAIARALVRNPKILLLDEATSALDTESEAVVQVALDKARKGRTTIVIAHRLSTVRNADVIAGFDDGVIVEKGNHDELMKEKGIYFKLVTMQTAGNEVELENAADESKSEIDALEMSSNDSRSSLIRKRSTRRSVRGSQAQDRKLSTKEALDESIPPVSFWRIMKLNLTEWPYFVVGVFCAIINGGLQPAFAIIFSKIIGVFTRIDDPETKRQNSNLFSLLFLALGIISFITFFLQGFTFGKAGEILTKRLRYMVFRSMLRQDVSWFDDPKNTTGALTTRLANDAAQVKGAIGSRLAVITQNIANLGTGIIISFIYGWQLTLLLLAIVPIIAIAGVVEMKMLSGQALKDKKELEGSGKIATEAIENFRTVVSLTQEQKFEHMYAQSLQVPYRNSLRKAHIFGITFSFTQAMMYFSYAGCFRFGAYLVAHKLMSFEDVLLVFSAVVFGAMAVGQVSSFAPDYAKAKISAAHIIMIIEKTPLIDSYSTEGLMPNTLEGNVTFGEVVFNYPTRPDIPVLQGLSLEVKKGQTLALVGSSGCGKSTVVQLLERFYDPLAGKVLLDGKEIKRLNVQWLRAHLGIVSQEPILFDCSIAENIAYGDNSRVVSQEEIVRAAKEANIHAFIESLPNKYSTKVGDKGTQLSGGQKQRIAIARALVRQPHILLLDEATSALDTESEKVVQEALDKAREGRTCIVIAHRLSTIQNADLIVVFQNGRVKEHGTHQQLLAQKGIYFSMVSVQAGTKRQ
Experimental: as §1, §2

[4] = biological target: T1, ABCB1 E556M (catalytic glutamate mutant); test: MgATP dependent UIC2 binding in permeabilized NIH 3T3 cells (apparent nucleotide affinity); assay type: cell-based
Experimental: (§3) NIH 3T3 cells (1 × 10^7 cells/ml) were treated with 300 U/ml streptolysin O (SLO, Sigma-Aldrich, Budapest) in the presence of 10 mM DL-Dithiothreitol (DTT), protease inhibitor cocktail (Sigma-Aldrich, Budapest, Hungary) and 100 μg/ml phenylmethanesulfonyl fluoride (PMSF) in phosphate-buffered saline (PBS) containing 1% fetal bovine serum (FBS-PBS) at 37°C for 30 min, allowing permeabilization of approximately 60–80% of the cells (judged by propidium iodide (PI) staining). The reaction was stopped with 10 ml ice-cold FBS-PBS and the cells were centrifuged for 5 min at 525 × g at 4°C. Unbound toxin was removed by washing the cells 3 times with FBS-PBS and the cell pellet was re-suspended in FBS-PBS.
(§4) Apparent affinity of nucleotide binding (KA) was determined as it is described in Barsony et al.. Briefly, MgATP was added in a broad concentration range to permeabilized cells (1 × 10^6 cells/ml) in the presence or absence of 0.5 mM vanadate (Vi) for 30 min at 37°C. Then the samples (without washing) were further incubated with 10 μg/ml UIC2-A647 mAb for another 30 min at 37°C. Following antibody labeling, samples were washed 3 times with ice-cold FBS-PBS and re-suspended in ice-cold FBS-PBS containing 3 μg/ml PI. The UIC2-A647 fluorescence intensity of the PI positive cells was measured by flow cytometry and plotted as a function of the nucleotide concentration. To determine the apparent affinity of ABCB1 to the nucleotides (KA) data points were fitted with the four-parameter Hill function, where Fmin and Fmax values are the minimum and maximum fluorescence intensities.

[5] = biological target: T2, ABCB1 quadruple mutant (S474E, E556M, G1178R, Q1180E); test: as above; assay type: cell-based
Experimental: as §3, §4

[6] = biological target: T3, wild-type ABCB1; test: as above; assay type: cell-based
Experimental: as §3, §4

[7] = system: ABCB1; design: method as in PMID 11121420; conditions: reported values; read-out: KM for ATP hydrolysis; cited from earlier work

In the case of CCOc1ccc(-c2nc3ccc(-c4nc5ccc(N6CCN(C)CC6)cc5[nH]4)cc3[nH]2)cc1 [Hoechst 33342], the transport activity ([1]; E556M expressing cells) is reported as “abolished transport activity”, the “intracellular accumulation / efflux by ABCB1” value ([2]; quadruple mutant expressing cells) is reported as “able to limit” and the “difference in transport activity factor between wild type and quadruple mutant” value ([2]; wild type vs quadruple mutant) is reported as “two-fold difference”. For the same molecule, the “intracellular accumulation / efflux by ABCB1” value [3] was “effectively prevented intracellular accumulation”.

With Nc1ncnc2c1ncn2[C@@H]1O[C@H](COP(=O)(O)OP(=O)([O-])OP(=O)([O-])O)[C@@H](O)[C@H]1O.[Mg+2] [MgATP] the “apparent affinity of ATP (KA)” value ([4]; absence of Vi) was 0.077 ± 0.02 mM, the “apparent affinity of ATP (KA) with Vi” value ([4]; treatment with 0.5 mM Vi) was 0.027 ± 0.001 mM and the “apparent affinity for MgATP/Vi (KA)” value ([5]; 0.5 mM Vi) was 0.038 ± 0.001 mM. For the same molecule, the “apparent affinity for MgATP (KA)” value ([5]; absence of Vi) was 1.12 ± 0.6 mM, the “apparent affinity (KA) lower than reported KM” value ([6]; wild-type ABCB1, KA vs reported KM) was 3–4 fold and the “apparent affinity of MgATP (KA)” value ([6]; wild-type ABCB1, absence of vanadate, UIC2 binding readout, 37°C) was 1.56 ± 0.46 mM. For the same molecule, the Km [7] was 300 to 500 µM.

For O=C(O)CN(CC(=O)O)Cc1cc2c(cc1O)Oc1cc(O)c(CN(CC(=O)O)CC(=O)O)cc1C21OC(=O)c2ccccc21 [calcein], the transport activity [1] was “abolished transport activity”, the “difference in transport activity factor between wild type and quadruple mutant” value [2] was “two-fold difference” and the “intracellular accumulation / efflux by ABCB1” value [2] was “able to limit”.
